Measured values as given in patent publication US9018175B2 (Takeda GmbH, priority 2009, dated 2015).

How the values were obtained:
human PDE5 = target: T1, human PDE5 (Homo sapiens, UniProt O76074); assay: Inhibition of PDE5 activity (SPA, [3H]cGMP, platelet lysate); type: biochemical; conditions: PDE5 from human platelet lysate; values given as bins; read-out: PDE5A inhibitory values measured as −logIC50 (converted)
T1 construct: from tissue; host or cells: human platelets from fresh donor blood (10,000 g supernatant of sonicated platelets)
Description: As a source for human PDE5, platelets are used. For that purpose, 150 ml fresh blood from human donors anticoagulated with citrate [final concentration 0.3% (w/v)] is centrifuged at 200 g for 10 min to obtain the so-called platelet-rich-plasma (PRP) as a supernatant. 1/10 volume of ACD solution (85 mM Na3-citrate, 111 mM D-glucose, 71 mM citric acid, pH 4.4) is added to 9/10 volume of PRP. After centrifugation (1,400 g, 10 min) the cell pellet is resuspended in 3 ml homogenization buffer (NaCl 140 mM, KCl 3.8 mM, EGTA (ethylene glycol tetraacetic acid) 1 mM, MgCl2 1 mM, Tris-HCl 20 mM, beta-mercaptoethanol 1 mM, pH 8.2) plus protease-inhibitor mix giving rise to the final concentrations of 0.5 mM Pefablock (Roche), 10 μM Leupeptin, 5 μM Trypsininhibitor, 2 mM Benzamidin and 10 μM Pepstatin A. The suspension is sonified and thereafter centrifuged for 15 min at 10,000 g. The resulting supernatant (platelet lysate) is used for enzymatic testings.
PDE5 activities were measured in a 96-well platform using SPA (scintillation proximity assay) yttrium silicate beads (RPNQ1050 from GE Healthcare). In a first step the PDE activity operates hydrolysis of either [^3H] cGMP (substrate) into [^3H] 5′GMP. In a second step substrate and product are distinguished following addition of SPA yttrium silicate beads. Indeed, in the presence of zinc sulphate the linear [^3H] […] Close proximity of bound [^3H] […] The test volume is 100 pl and contains 20 mM Tris buffer (pH 7.4), 0.1 mg of BSA (bovine serum albumin)/ml, 5 mM Mg^2+, 1 μM motapizone (PDE3 Inhibitor), 10 nM PDE2 inhibitor 2-(3,4-dimethoxybenzyl)-7-[(1R,2R)-2-hydroxy-1-(2-phenylethyl)propyl]-5-methylimidazo[5,1-f][1,2,4]triazin-4(3H)-one, […] (cyclic guanosine monophosphate) (including about 50,000 cpm of [3H]cGMP as a tracer), 1 pl of the respective compound dilution in dimethylsulfoxide (DMSO) and sufficient PDE5-containing platelet lysat (10,000, g supernatant, see above) to ensure that 10-20 wt % of the cGMP is converted under the said experimental conditions. […] After a preincubation of 5 min at 37° C., the reaction is started by adding the substrate (cGMP) and the assay is incubated for a further 15 min; after that, it is stopped by adding SPA beads (50 pl). In accordance with the manufacturer's instructions, the SPA beads had previously been resuspended in water, but are then diluted 1:3 (v/v) in water; the diluted solution also contains 3 mM […]3-isobutyl-1-methylxanthine (IBMX) to ensure a complete PDE activity stop. After the beads have been sedimented (>30 min), the MTP's are analyzed in commercially available luminescence detection devices. The corresponding IC50 values of the compounds for the inhibition of PDE activity are determined from the concentration-effect curves by means of non-linear regression.

PDE4B1 = target: T2, PDE4B1 (Homo sapiens, UniProt Q07343); assay: Inhibition of PDE4B1 activity (SPA, [3H]cAMP); type: biochemical; conditions: recombinant PDE4B1 expressed in SF21 cells; 0.5 pM [sic] cAMP; values given as bins; read-out: PDE4B1 inhibitory values measured as −logIC50 (converted)
T2 construct: made in house; host or cells: SF21 insect cells (baculovirus; pCR-Bac vector)
T2 sequence (Q07343 whole entry): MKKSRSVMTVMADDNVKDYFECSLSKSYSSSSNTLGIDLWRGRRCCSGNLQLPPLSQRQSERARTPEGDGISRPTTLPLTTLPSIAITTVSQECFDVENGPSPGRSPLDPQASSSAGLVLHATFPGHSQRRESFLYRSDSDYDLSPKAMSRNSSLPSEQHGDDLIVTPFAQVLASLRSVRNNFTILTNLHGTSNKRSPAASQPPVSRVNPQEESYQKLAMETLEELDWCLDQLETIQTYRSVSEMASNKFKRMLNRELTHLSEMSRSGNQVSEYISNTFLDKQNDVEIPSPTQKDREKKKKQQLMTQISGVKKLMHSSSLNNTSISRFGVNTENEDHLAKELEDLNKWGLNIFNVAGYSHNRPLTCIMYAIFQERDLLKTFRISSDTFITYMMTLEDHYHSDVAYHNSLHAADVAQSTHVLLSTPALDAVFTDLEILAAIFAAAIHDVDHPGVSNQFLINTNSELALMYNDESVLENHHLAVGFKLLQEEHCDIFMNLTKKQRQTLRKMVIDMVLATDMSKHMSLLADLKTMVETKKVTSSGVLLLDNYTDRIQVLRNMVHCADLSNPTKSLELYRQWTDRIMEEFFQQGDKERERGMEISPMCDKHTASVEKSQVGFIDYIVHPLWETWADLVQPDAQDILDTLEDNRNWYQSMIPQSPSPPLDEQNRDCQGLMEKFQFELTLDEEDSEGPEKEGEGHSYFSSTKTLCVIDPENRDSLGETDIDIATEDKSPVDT
Description: The PDE4B1 (GB no. L20966) was a gift of Prof. M. Conti (Stanford University, USA). It was amplified from the original plasmid (pCMV5) via PCR with primers Rb18 (5′-[…]-3′) and Rb10 (5′-[…]-3′) and cloned into the pCR-Bac vector (Invitrogen, Groningen, NL).
The recombinant baculovirus was prepared by means of homologous recombination in SF9 insect cells. The expression plasmids were cotransfected with Baculo-Gold DNA (Pharmingen, Hamburg) using a standard protocol (Pharmingen, Hamburg). Wt virus-free recombinant virus supernatants were selected using plaque assay methods. After that, high-titre virus supernatants were prepared by amplifying 3 times. PDE4B1 was expressed in SF21 cells by infecting 2×10^6 cells/ml with an MOI (multiplicity of infection) between 1 and 10 in the serum-free medium Insect Express Sf9-S2 (PAA, Pasching, Austria). The cells were cultured at 28° C. for 48-72 hours, after which they were pelleted for 5-10 min at 1000×g and 4° C.
The SF21 insect cells were resuspended, at a concentration of approx. 10^7 cells/ml, in ice-cold (4° C.) homogenization buffer (20 mM Tris, pH 8.2, containing the following additions: 140 mM NaCl, 3.8 mM KCl, 1 mM EGTA, 1 mM MgCl2, 10 mM e-mercaptoethanol, 2 mM benzamidine, 0.4 mM Pefablock, 10 pM leupeptin, 10 pM pepstatin A, 5 pM trypsin inhibitor) and disrupted by ultrasonication. The homogenate was then centrifuged for 10 min at 1000, g and the supernatant was stored at −80° C. until subsequent use (see below). The protein content was determined by the Bradford method (BioRad, Munich) using BSA as the standard.
PDEB1 activities were measured in a 96-well platform using SPA (scintillation proximity assay) yttrium silicate beads (RPNQ1050 from GE Healthcare). In a first step the PDE activity operates hydrolysis of either [^3H] cAMP (substrate) into [^3H] 5′AMP. In a second step substrate and product are distinguished following addition of SPA yttrium silicate beads. Indeed, in the presence of zinc sulphate the linear [^3H] […] Close proximity of bound [^3H] […] The test volume is 100 pl and contains 20 mM Tris buffer (pH 7.4), 0.1 mg/ml of BSA, 5 mM Mg^2+, […] (including about 50,000 cpm of [3H]cAMP), 1 pl of the respective substance dilution in DMSO and sufficient recombinant PDE (1000, g supernatant, see above) to ensure that 10-20% of the cAMP is converted under the said experimental conditions. […] After a preincubation of 5 min at 37° C., the reaction is started by adding the substrate (cAMP) and the assays are incubated for a further 15 min; after that, they are stopped by adding SPA beads (50 pl). In accordance with the manufacturer's instructions, the SPA beads had previously been resuspended in water, but were then diluted 1:3 (v/v) in water; the diluted solution also contains 3 mM IBMX to ensure a complete PDE activity stop. After the beads have been sedimented (>30 min), the MTP's are analyzed in commercially available luminescence detection devices. The corresponding IC50 values of the compounds for the inhibition of PDE4B1 activity are determined from the concentration-effect curves by means of non-linear regression.

SMILES | IC50 (human PDE5) [nM] | IC50 (PDE4B1) [nM]
CCOc1cc2c(cc1OC)C(c1ccc(C(=O)N3CCC(n4c(=O)c5sc(-c6ccccc6)cc5n(Cc5nnn(CC)n5)c4=O)CC3)cc1)=N[C@@H]1CCS(=O)(=O)C[C@H]21 [Example 19, 3-[1-({4-[(4aR,10bR)-9-ethoxy-8-methoxy-2,2-dioxido-3,4,4a,10b-tetrahydro-1H-thiopyrano[4,3-c]isoquinolin-6-yl]phenyl}carbonyl)piperidin-4-yl]-1-[(2-ethyl-2H-tetrazol-5-yl)methyl]-6-phenylthieno[3,2-d]pyrimidine-2,4(1H,3H)-dione] | < 10 | > 10
CCOc1cc2c(cc1OC)C(c1ccc(C(=O)N3CCC(n4c(=O)c5sc(-c6ccccc6)cc5n(Cc5cnc(C)s5)c4=O)CC3)cc1)=N[C@@H]1CCSC[C@H]21 [Example 20, 3-[1-({4-[(4aR,10bR)-9-ethoxy-8-methoxy-3,4,4a,10b-tetrahydro-1H-thiopyrano[4,3-c]isoquinolin-6-yl]phenyl}carbonyl)piperidin-4-yl]-1-[(2-methyl-1,3-thiazol-5-yl)methyl]-6-phenylthieno[3,2-d]pyrimidine-2,4(1H,3H)-dione] | < 10 | 1 to 10
CCOc1cc2c(cc1OC)C(c1ccc(C(=O)N3CCC(n4c(=O)c5sc(-c6ccccc6)cc5n(Cc5cnn(CC)n5)c4=O)CC3)cc1)=N[C@@H]1CCSC[C@H]21 [Example 21, 3-[1-({4-[(4aR,10bR)-9-ethoxy-8-methoxy-3,4,4a,10b-tetrahydro-1H-thiopyrano[4,3-c]isoquinolin-6-yl]phenyl}carbonyl)piperidin-4-yl]-1-[(2-ethyl-2H-1,2,3-triazol-4-yl)methyl]-6-phenylthieno[3,2-d]pyrimidine-2,4(1H,3H)-dione] | 10 to 100 | 1 to 10
CCOc1cc2c(cc1OC)C(c1ccc(C(=O)N3CCC(n4c(=O)c5sc(-c6ccccc6)cc5n(Cc5nc(CC)ns5)c4=O)CC3)cc1)=N[C@@H]1CCSC[C@H]21 [Example 22, 3-[1-({4-[(4aR,10bR)-9-ethoxy-8-methoxy-3,4,4a,10b-tetrahydro-1H-thiopyrano[4,3-c]isoquinolin-6-yl]phenyl}carbonyl)piperidin-4-yl]-1-[(3-ethyl-1,2,4-thiadiazol-5-yl)methyl]-6-phenylthieno[3,2-d]pyrimidine-2,4(1H,3H)-dione] | 10 to 100 | 1 to 10
CCOc1cc2c(cc1OC)C(c1ccc(C(=O)N3CCC(n4c(=O)c5sc(-c6ccccc6)cc5n(Cc5cn(CC)nn5)c4=O)CC3)cc1)=N[C@@H]1CCSC[C@H]21 [Example 23, 3-[1-({4-[(4aR,10bR)-9-ethoxy-8-methoxy-3,4,4a,10b-tetrahydro-1H-thiopyrano[4,3-c]isoquinolin-6-yl]phenyl}carbonyl)piperidin-4-yl]-1-[(1-ethyl-1H-1,2,3-triazol-4-yl)methyl]-6-phenylthieno[3,2-d]pyrimidine-2,4(1H,3H)-dione] | > 100 | 1 to 10
CCOc1cc2c(cc1OC)C(c1cccc(C(=O)N3CCC(n4c(=O)c5sc(-c6ccccc6)cc5n(Cc5nnn(CC)n5)c4=O)CC3)c1)=N[C@@H]1CCSC[C@H]21 [Example 26, 3-[1-({3-[(4aR,10bR)-9-ethoxy-8-methoxy-3,4,4a,10b-tetrahydro-1H-thiopyrano[4,3-c]isoquinolin-6-yl]phenyl}carbonyl)piperidin-4-yl]-1-[(2-ethyl-2H-tetrazol-5-yl)methyl]-6-phenylthieno[3,2-d]pyrimidine-2,4(1H,3H)-dione] | < 10 | > 10
CCOc1cc2c(cc1OC)C(c1cccc(C(=O)N3CCC(n4c(=O)c5sc(-c6ccccc6)cc5n(Cc5nc(CC)no5)c4=O)CC3)c1)=N[C@@H]1CCSC[C@H]21 [Example 27, 3-[1-({3-[(4aR,10bR)-9-ethoxy-8-methoxy-3,4,4a,10b-tetrahydro-1H-thiopyrano[4,3-c]isoquinolin-6-yl]phenyl}carbonyl)piperidin-4-yl]-1-[(3-ethyl-1,2,4-oxadiazol-5-yl)methyl]-6-phenylthieno[3,2-d]pyrimidine-2,4(1H,3H)-dione] | < 10 | 1 to 10
CCOc1cc2c(cc1OC)C(c1ccc(C(=O)N3CCC(n4c(=O)c5sc(-c6ccccc6)cc5n(Cc5nnn(COC)n5)c4=O)CC3)cc1)=N[C@@H]1CCSC[C@H]21 [Example 28, 3-[1-({4-[(4aR,10bR)-9-ethoxy-8-methoxy-3,4,4a,10b-tetrahydro-1H-thiopyrano[4,3-c]isoquinolin-6-yl]phenyl}carbonyl)piperidin-4-yl]-1-{[2-(methoxymethyl)-2H-tetrazol-5-yl]methyl}-6-phenylthieno[3,2-d]pyrimidine-2,4(1H,3H)-dione] | < 10 | < 1
CCOc1cc2c(cc1OC)C(c1ccc(C(=O)N3CCC(n4c(=O)c5sc(-c6ccccc6)cc5n(Cc5nnnn5COC)c4=O)CC3)cc1)=N[C@@H]1CCSC[C@H]21 [Example 29, 3-[1-({4-[(4aR,10bR)-9-ethoxy-8-methoxy-3,4,4a,10b-tetrahydro-1H-thiopyrano[4,3-c]isoquinolin-6-yl]phenyl}carbonyl)piperidin-4-yl]-1-{[1-(methoxymethyl)-1H-tetrazol-5-yl]methyl}-6-phenylthieno[3,2-d]pyrimidine-2,4(1H,3H)-dione] | < 10 | < 1
